Biological target: T1, untagged form of the CRD (human dectin-2) (Homo sapiens, UniProt Q6EIG7)
T1 construct: gene CLEC6A; extended C-type carbohydrate-recognition domain starting at Leu-64, preceded by Met-Ala; untagged; one monomer in the asymmetric unit
T1 sequence (Q6EIG7 64-209): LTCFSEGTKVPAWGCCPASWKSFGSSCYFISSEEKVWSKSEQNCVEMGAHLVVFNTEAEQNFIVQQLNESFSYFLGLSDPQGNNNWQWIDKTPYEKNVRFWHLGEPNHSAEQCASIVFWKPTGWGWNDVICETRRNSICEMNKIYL
Test: X-ray crystallography, […] Å
Assay type: binding
Settings: pH 8.0, Ca2+; primary Ca2+ site plus adjacent secondary site; D1 and D2 branches at 50% occupancy each

CC(=O)N[C@H]1[C@H](O[C@H]2[C@H](O)[C@@H](NC(C)=O)C(O)O[C@@H]2CO)O[C@H](CO)[C@@H](O[C@@H]2O[C@H](CO[C@H]3O[C@H](CO[C@H]4O[C@H](CO)[C@@H](O)[C@H](O)[C@@H]4O[C@H]4O[C@H](CO)[C@@H](O)[C@H](O)[C@@H]4O)[C@@H](O)[C@H](O[C@H]4O[C@H](CO)[C@@H](O)[C@H](O)[C@@H]4O[C@H]4O[C@H](CO)[C@@H](O)[C@H](O)[C@@H]4O)[C@@H]3O)[C@@H](O)[C@H](O[C@H]3O[C@H](CO)[C@@H](O)[C@H](O)[C@@H]3O[C@H]3O[C@H](CO)[C@@H](O)[C@H](O)[C@@H]3O[C@H]3O[C@H](CO)[C@@H](O)[C@H](O)[C@@H]3O)[C@@H]2O)[C@@H]1O (stereo partly shown) [Man9GlcNAc2]
X-ray crystallography, 2.4 Å: crystals obtained with the untagged form of the CRD in combination with Man9GlcNAc2 oligosaccharide
